# Assay results from PubChem BioAssay AID248 (DTP/NCI, 2004).
# Values joined by “and” are separate entries in the source; they are usually repeats but may differ in a detail not shown here. Identical values can stand only once. Toxic doses and inconclusive results are not listed.
# Test system: L1210 leukemia ip in BDF1 mice, survival T/C
# Assay: NCI In Vivo Anticancer Drug Screen. Data for tumor model L1210 Leukemia (intraperitoneal) in B6D2F1 (BDF1) mice
# Conditions: endpoint: mean survival time, higher = longer survival
# Outline: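 Tumor cells were implanted, animals were treated, and survival was followed. The result divides the treated measurement by the vehicle-control measurement.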
# [1] = dose: 100.0 mg/kg/injection, schedule: Q01DX009 (ip), vehicle: saline with Tween-80
# [2] = dose: 100.0 mg/kg/injection, schedule: Q04DX003 (ip), vehicle: saline with Tween-80
# [3] = dose: 200.0 mg/kg/injection, schedule: Q04DX003 (ip), vehicle: saline with Tween-80
# [4] = dose: 400.0 mg/kg/injection, schedule: Q04DX003 (ip), vehicle: saline with Tween-80
# [5] = dose: 200.0 mg/kg/injection, schedule: Q04DX003 (ip), vehicle: carboxymethylcellulose (CMC)
# [6] = dose: 100.0 mg/kg/injection, schedule: Q04DX003 (ip), vehicle: Klucel (hydroxypropylcellulose) (HPC)
# [7] = dose: 200.0 mg/kg/injection, schedule: Q04DX003 (ip), vehicle: Klucel (hydroxypropylcellulose) (HPC)
# [8] = dose: 400.0 mg/kg/injection, schedule: Q04DX003 (ip), vehicle: Klucel (hydroxypropylcellulose) (HPC)
# [9] = dose: 100.0 mg/kg/injection, schedule: Q01DX009 (ip), vehicle: Klucel (hydroxypropylcellulose) (HPC)
# [10] = dose: 100.0 mg/kg/injection, schedule: Q04DX002 (ip), vehicle: Klucel (hydroxypropylcellulose) (HPC)
# [11] = dose: 200.0 mg/kg/injection, schedule: Q01DX009 (ip), vehicle: Klucel (hydroxypropylcellulose) (HPC)
# [12] = dose: 200.0 mg/kg/injection, schedule: Q04DX002 (ip), vehicle: Klucel (hydroxypropylcellulose) (HPC)
# [13] = dose: 400.0 mg/kg/injection, schedule: Q01DX009 (ip), vehicle: Klucel (hydroxypropylcellulose) (HPC)
# [14] = dose: 400.0 mg/kg/injection, schedule: Q04DX002 (ip), vehicle: Klucel (hydroxypropylcellulose) (HPC)
# [15] = dose: 200.0 mg/kg/injection, schedule: Q01DX009 (ip), vehicle: saline with Tween-80
# [16] = dose: 400.0 mg/kg/injection, schedule: Q01DX009 (ip), vehicle: saline with Tween-80
# [17] = dose: 200.0 mg/kg/injection, schedule: Q01DX009 (ip), vehicle: saline
# [18] = dose: 100.0 mg/kg/injection, schedule: Q01DX001 (ip), vehicle: saline
# [19] = dose: 400.0 mg/kg/injection, schedule: Q01DX001 (ip), vehicle: saline
structure (smiles),measurement,setting,value
CCCCCCCCNc1cc2c3c(c1)CCCN3CCC2,T/C,"dose: 0.78 mg/kg/injection, schedule: Q01DX009 (ip), vehicle: alcohol",110 % of control
same,T/C,"dose: 1.56 mg/kg/injection, schedule: Q01DX009 (ip), vehicle: alcohol",102 % of control
same,T/C,"dose: 1.56 mg/kg/injection, schedule: Q04DX003 (ip), vehicle: alcohol",102 % of control
same,T/C,"dose: 3.12 mg/kg/injection, schedule: Q01DX009 (ip), vehicle: alcohol",113 % of control
same,T/C,"dose: 3.12 mg/kg/injection, schedule: Q04DX003 (ip), vehicle: alcohol",108 % of control
same,T/C,"dose: 6.25 mg/kg/injection, schedule: Q04DX003 (ip), vehicle: alcohol",97 % of control
same,T/C,"dose: 25.0 mg/kg/injection, schedule: Q04DX003 (ip), vehicle: alcohol",88 % of control
Cc1ccc(S(=O)(=O)Oc2ccc3ccccc3c2)cc1,T/C,[1],88 % of control
same,T/C,[2],98 % of control
same,T/C,[3],86 % of control
same,T/C,[4],86 % of control
O=C1/C(=C/c2ccncc2)CCCc2ccccc21,T/C,"dose: 6.25 mg/kg/injection, schedule: Q04DX003 (ip), vehicle: Klucel (hydroxypropylcellulose) (HPC)",98 % of control
same,T/C,"dose: 12.5 mg/kg/injection, schedule: Q04DX003 (ip), vehicle: Klucel (hydroxypropylcellulose) (HPC)",97 % of control
same,T/C,"dose: 25.0 mg/kg/injection, schedule: Q04DX003 (ip), vehicle: Klucel (hydroxypropylcellulose) (HPC)",97 % of control
same,T/C,[5],100 % of control
Cc1cc(=O)[nH]n1-c1ccc(N)cc1,T/C,[6],105 % of control
same,T/C,[7],94 % of control
same,T/C,[8],103 % of control
O=C(NC(=S)Nc1cccc(Cl)c1)c1cccc(Br)c1,T/C,"dose: 100.0 mg/kg/injection, schedule: Q01DX001 (ip), vehicle: Klucel (hydroxypropylcellulose) (HPC)",86 % of control
same,T/C,[9],98 % of control and 90 % of control
same,T/C,[10],91 % of control
same,T/C,[6],108 % of control
same,T/C,"dose: 200.0 mg/kg/injection, schedule: Q01DX001 (ip), vehicle: Klucel (hydroxypropylcellulose) (HPC)",117 % of control
same,T/C,[11],98 % of control and 90 % of control
same,T/C,[12],93 % of control and 91 % of control
same,T/C,[7],107 % of control
same,T/C,"dose: 400.0 mg/kg/injection, schedule: Q01DX001 (ip), vehicle: Klucel (hydroxypropylcellulose) (HPC)",86 % of control
same,T/C,[13],87 % of control and 91 % of control
same,T/C,[14],93 % of control and 91 % of control
same,T/C,[8],96 % of control
COC1OC(COC(=O)c2ccccc2)C(OC(=O)Nc2ccccc2)C1O (stereo unspecified),T/C,[1],90 % of control
same,T/C,[2],93 % of control
same,T/C,[15],100 % of control
same,T/C,[3],98 % of control
same,T/C,[16],95 % of control
same,T/C,[4],92 % of control
NC(CCC(=O)NC(CSC(c1ccccc1)(c1ccccc1)c1ccc(F)cc1)C(=O)NCC(=O)O)C(=O)O (stereo unspecified),T/C,"dose: 25.0 mg/kg/injection, schedule: Q01DX009 (ip), vehicle: saline",124 % of control
same,T/C,"dose: 50.0 mg/kg/injection, schedule: Q01DX009 (ip), vehicle: other",116 % of control
same,T/C,"dose: 50.0 mg/kg/injection, schedule: Q01DX009 (ip), vehicle: saline",118 % of control
same,T/C,[17],152 % of control
Cn1cc(C(N)=O)ccc1=N,T/C,"dose: 100.0 mg/kg/injection, schedule: Q04DX003 (ip), vehicle: saline",113 % of control
same,T/C,"dose: 200.0 mg/kg/injection, schedule: Q04DX003 (ip), vehicle: saline",98 % of control
same,T/C,"dose: 400.0 mg/kg/injection, schedule: Q04DX003 (ip), vehicle: saline",106 % of control
C/C=C/CCCCCCCC,T/C,"dose: 100.0 mg/kg/injection, schedule: Q01DX001 (ip), vehicle: saline with Tween-80",93 % of control
same,T/C,"dose: 200.0 mg/kg/injection, schedule: Q01DX001 (ip), vehicle: saline with Tween-80",95 % of control
same,T/C,"dose: 400.0 mg/kg/injection, schedule: Q01DX001 (ip), vehicle: saline with Tween-80",96 % of control
Cc1ccc2c(Cl)ccc(Cl)c2n1,T/C,[10],90 % of control
same,T/C,"dose: 100.0 mg/kg/injection, schedule: Q04DX002 (ip), vehicle: carboxymethylcellulose (CMC)",98 % of control and 90 % of control
same,T/C,"dose: 100.0 mg/kg/injection, schedule: Q04DX003 (ip), vehicle: carboxymethylcellulose (CMC)",95 % of control
same,T/C,[12],90 % of control
same,T/C,"dose: 200.0 mg/kg/injection, schedule: Q04DX002 (ip), vehicle: carboxymethylcellulose (CMC)",94 % of control and 91 % of control
same,T/C,[5],104 % of control
same,T/C,[14],105 % of control
same,T/C,"dose: 400.0 mg/kg/injection, schedule: Q04DX002 (ip), vehicle: carboxymethylcellulose (CMC)",92 % of control
C#CCOCC1CNC(=S)O1 (stereo unspecified),T/C,[1],100 % of control
same,T/C,[2],95 % of control
same,T/C,[15],98 % of control
same,T/C,[3],111 % of control
same,T/C,[16],96 % of control
same,T/C,[4],97 % of control
Cc1ccc(S(=O)(=O)[n+]2ccc(C)cc2)cc1,T/C,[10],98 % of control
same,T/C,[12],95 % of control
O=S(=O)(OCC1CO1)c1ccccc1 (stereo unspecified),T/C,"dose: 50.0 mg/kg/injection, schedule: Q01DX006 (ip), vehicle: saline with Tween-80",103 % of control
same,T/C,"dose: 100.0 mg/kg/injection, schedule: Q01DX006 (ip), vehicle: saline with Tween-80",106 % of control
same,T/C,"dose: 200.0 mg/kg/injection, schedule: Q01DX006 (ip), vehicle: saline with Tween-80",110 % of control
O=C(NCCBr)Nc1ccc([N+](=O)[O-])cc1,T/C,"dose: 50.0 mg/kg/injection, schedule: Q01DX009 (ip), vehicle: saline with Tween-80",90 % of control
same,T/C,[1],87 % of control
C=C1C=C(C)N(C(=O)c2ccc(Cl)cc2)CCN1C(=O)c1ccc(Cl)cc1,T/C,[9],100 % of control
same,T/C,[11],90 % of control
same,T/C,[13],92 % of control
CCOC(=O)c1cc2c(-c3ccccc3)c(-c3ccccc3)c(-c3ccccc3)c(-c3ccccc3)n2n1,T/C,[18],93 % of control
same,T/C,[19],93 % of control
CSCc1ccccn1,T/C,"dose: 50.0 mg/kg/injection, schedule: Q01DX001 (ip), vehicle: saline",106 % of control
same,T/C,[18],101 % of control
same,T/C,"dose: 200.0 mg/kg/injection, schedule: Q01DX001 (ip), vehicle: saline",93 % of control
same,T/C,[19],104 % of control
CCCCN1C(=O)NC(=O)C1c1ccsc1 (stereo unspecified),T/C,"dose: 100.0 mg/kg/injection, schedule: Q01DX001 (ip), vehicle: carboxymethylcellulose (CMC)",103 % of control
same,T/C,"dose: 200.0 mg/kg/injection, schedule: Q01DX001 (ip), vehicle: carboxymethylcellulose (CMC)",94 % of control
same,T/C,"dose: 400.0 mg/kg/injection, schedule: Q01DX001 (ip), vehicle: carboxymethylcellulose (CMC)",100 % of control
c1ccc(OP(Oc2ccccc2)c2ccccc2)cc1,T/C,"dose: 100.0 mg/kg/injection, schedule: Q01DX009 (ip), vehicle: saline",108 % of control
same,T/C,[6],105 % of control
same,T/C,[17],115 % of control
same,T/C,[7],102 % of control
same,T/C,[8],98 % of control
CCOC(=O)NCC(CCN1CCCC1)(CCN1CCCC1)c1cccc2ccccc12,T/C,"dose: 25.0 mg/kg/injection, schedule: Q04DX002 (ip), vehicle: saline",101 % of control
same,T/C,"dose: 50.0 mg/kg/injection, schedule: Q04DX002 (ip), vehicle: saline",93 % of control
